Experimental findings from patent US11129845B2, “Compositions and methods for the delivery of nucleic acids” (CASE WESTERN RESERVE UNIVERSITY, priority 2014, dated 2021) are described below.

In general, viability refers to a per cent measure of how many cells are alive, often set against a control.

A short description of data set [1]: Nanoparticle diameter and polydispersity by dynamic light scattering (Malvern Zetasizer). It is filed as physicochemical. The note with it: for Nanoparticle diameter as measured by dynamic light scattering: siRNA-lipid complexes. The protocol: (§1) The cationic lipid carriers are dissolved in ethanol at a stock concentration of 2.5 mM, while all siRNA is reconstituted in nuclease-free water at a 0.25 μg/μL (18.8 μM) concentration. Nanoparticles are formulated by mixing the carriers with siRNA for a period of 30 min in RNase-free phosphate buffer saline (PBS) at pre-specified N/P ratios (N=number of protonable amines in lipid, P=number of phosphate groups in the siRNA). In preparing the lipoplexes, proper dilutions were made such that the volume ratio of ethanol:water was kept constant at 1:20. Minimizing the amount of ethanol is important because it is effective in dissolving lipids, thus inhibiting particle formation. The diameters (as determined by dynamic light scattering) and zeta potentials of all nanoparticles were analyzed using a Malvern Zetasizer instrument at pH=7.4. siRNA encapsulation efficiency was calculated using a RiboGreen fluorescence-based assay from Invitrogen, designed specifically for detection of free RNA at […] wavelengths of 480 and 520 nm, respectively. Nanoparticles were created with all carriers in the library so that final siRNA concentrations were 1.6 μg/mL. A linear standard curve was utilized to calculate the encapsulation efficiencies from signal intensities measured by a SpectraMax microplate reader (Molecular Devices).

The nature of data set [2]: Zeta-potential of siRNA-lipid complexes (Malvern Zetasizer). Type of data set: physicochemical. The procedure: as §1
A further data set deals with Red blood cells (RBCs). Put plainly: pH-sensitive hemolytic activity of carrier library. It is filed as cell-based, rat. The note with it: all N/P ratios (5, 10, 15) and pHs (7.4, 6.5, 5.4) tested. The protocol: Hemolytic activity of each carrier was determined to verify the pH-sensitive membrane disruption capabilities of each carrier in the delivery system. Red blood cells (RBCs) extracted from rats were purchased from Innovative Research Inc. (Novi, Mich.) and diluted 1:50 in PBS solutions of pHs=5.4, 6.5, or 7.4. A total of 100 μL of nanoparticles were created at N/P ratios of 5, 10, 15 and then incubated with 100 μL of diluted RBCs at 37° C. for 2 h. Nanoparticles were formulated so that the final amine concentration for all the samples, after mixing with the RBCs, was 150 μM. Multiple pHs were tested to predict if the nanoparticles could disrupt membranes of the endosomal-lysosomal compartments (pH=5-6), without affecting the integrity of the outer cell membrane prior to endocytosis (pH=7.4). The absorbance of each test sample was measured on a SpectraMax spectrophotometer at a wavelength of 540 nm in order to determine the amount of hemoglobin released from the RBCs, due to membrane destabilization, relative to that achieved by a positive control treatment of 1% (v/v) Triton-X100 surfactant during the 2 hour incubation period.

The subject of the next data set is MDA-MB-231 cells. Put plainly: MTT cytotoxicity with PTX after siRNA nanoparticles, MDA-MB-231. The conditions noted are these: Homo sapiens; MDA-MB-231, 0.5 ng/mL PTX 48 hours; combination: nanoparticles 48 hours first; read-out: cell viability (MTT). Type of data set: cell-based. The protocol: (§2) Cytotoxicity assays were performed in a 96-well plate as described previously, by seeding 2,000 MDA-MB-231 or MDA-MB-231.DR cells/well. […] Next, the wells were washed twice with PBS and incubation with various concentrations of PTX in fresh media. After 2 additional days, the MTT reagent (Invitrogen) was added to the cells for 4 hours followed by the addition of SDS-HCl and further incubation for 4 hours. The absorbance of each well was measured at 570 nm using a SpectraMax spectrophotometer (Molecular Devices). Cellular viability was calculated as the average of the set of triplicates for each PTX concentration and was normalized relative to the no treatment control. Drug resistance was confirmed with an MTT assay to determine the IC50 of paclitaxel. The IC50 was defined as the dose of drug required to inhibit cell viability by 50%.

The next data set has as its system MDA-MB-231.DR cells. In words: MTT cytotoxicity with PTX after siRNA nanoparticles, MDA-MB-231.DR. Type of data set: cell-based. The note with it: Homo sapiens, 0.5 ng/mL PTX 48 hours, combination: nanoparticles 48 hours first, read-out: cell viability (MTT). The procedure: as §2
Data set [3] relates to HT29 colon carcinoma cells. Put plainly: Cellular uptake of Alexa Fluor 488-siRNA via flow cytometry. Type of data set: cell-based, human. The conditions noted are these: HT29, N/P=18, 4 h, 100 nM Alexa Fluor 488-siRNA. The protocol:
Flow cytometry was used to investigate the cellular uptake of our delivery system in HT29 colon carcinoma cells. All carriers in the library were formulated into nanoparticles by condensing Alexa Fluor 488-labeled siRNA at the optimal N/P ratio determined by the above luciferase knockdown studies. Approximately 50,000 cancer cells were seeded in 6-well plates and allowed to grow until 30-50% confluence was reached. The cancer cells were transfected with a 100 nM siRNA dose in serum-free media. After 4 h, the transfection media were aspirated and the cells were washed twice with PBS. The cells were then trypsinized, collected, and fixed with 2% paraformaldehyde in PBS, prior to flow cytometric analysis.
For orientation: Flow cytometry measures light scatter and fluorescence of single cells or particles in a stream.

On to `CCCCCCCC/C=C\CCCCCCCC(=O)NC(CS)C(=O)NCCNC(=O)CCN(CCCNCCCCNCCCN)CCC(=O)NCCNC(=O)C(CS)NC(=O)CCCCCCC/C=C\CCCCCCCC` (centres unmarked) [SCO], for which the “Polydispersity of siRNA-lipid complexes” value in data set [1] (N/P = 2) came out at 0.339; in data set [1] (N/P = 5) it was 0.236; in data set [1] (N/P = 8), 0.19; in data set [1] (N/P = 10), 0.158; in data set [1] (N/P = 15), 0.176. The “Nanoparticle diameter as measured by dynamic light scattering” value in data set [1] (N/P = 2) is 407 ± 35 nm; in data set [1] (N/P = 5), 138 ± 28 nm; in data set [1] (N/P = 8), 63 ± 12 nm; in data set [1] (N/P = 10), 65 ± 11 nm; in data set [1] (N/P = 15), 53 ± 9 nm. The “Zeta-potential of siRNA-lipid complexes” value in data set [2] (pH = 7.4, N/P = 2) was −29.49 ± 1.33 mV; in data set [2] (pH = 7.4, N/P = 5) it was 26.60 ± 2.76 mV; in data set [2] (pH = 7.4, N/P = 8), 23.16 ± 1.88 mV; in data set [2] (pH = 7.4, N/P = 10) it was 23.29 ± 3.11 mV; in data set [2] (pH = 7.4, N/P = 15), 25.16 ± 3.75 mV. Also, the “hemolytic activity relative to Triton X-100” value in the data set on Red blood cells (RBCs) was “greatest hemolytic activity”.

In the case of `CC(=O)O[C@H]1C(=O)[C@@]2(C)[C@H]([C@H](OC(=O)c3ccccc3)[C@]3(O)C[C@H](OC(=O)[C@H](O)[C@@H](NC(=O)c4ccccc4)c4ccccc4)C(C)=C1C3(C)C)[C@]1(OC(C)=O)CO[C@@H]1C[C@@H]2O` [PTX, paclitaxel], the viability at 0.0005 µg/mL turned out to be 44.6 ± 6.6% in the data set with MDA-MB-231 cells and 80.7 ± 2.9% in the data set with MDA-MB-231.DR cells.

`CCCCC/C=C\C/C=C\CCCCCCCC(=O)NC(CS)C(=O)NCCNC(=O)CCN(CCCNCCCCNCCCN)CCC(=O)NCCNC(=O)C(CS)NC(=O)CCCCCCC/C=C\C/C=C\CCCCC` (centres unmarked) [SCLn]: the “Polydispersity of siRNA-lipid complexes” value in data set [1] (N/P = 2) was 0.298; in data set [1] (N/P = 5), 0.233; in data set [1] (N/P = 8), 0.140; in data set [1] (N/P = 10), 0.184; in data set [1] (N/P = 15), 0.180. The “Nanoparticle diameter as measured by dynamic light scattering” value is reported as 482 ± 40 nm in data set [1] (N/P = 2); 185 ± 22 nm in data set [1] (N/P = 5); 51 ± 14 nm in data set [1] (N/P = 8); 50 ± 12 nm in data set [1] (N/P = 10); 48 ± 12 nm in data set [1] (N/P = 15). Moreover, the “Zeta-potential of siRNA-lipid complexes” value in data set [2] (pH = 7.4, N/P = 2) is −28.35 ± 3.61 mV; in data set [2] (pH = 7.4, N/P = 5), 26.89 ± 1.85 mV; in data set [2] (pH = 7.4, N/P = 8) it was 26.03 ± 2.25 mV; in data set [2] (pH = 7.4, N/P = 10) it was 28.59 ± 2.25 mV; in data set [2] (pH = 7.4, N/P = 15), 17.15 ± 2.99 mV. The “cellular uptake, mean fluorescence intensity (MFI)” value in data set [3] came out at 4066±185. Besides, in the data set on Red blood cells (RBCs), the “hemolytic activity relative to Triton X-100” value is recorded as “greatest hemolytic activity”.
